Read-outs that look alike come from different tables or passages of the source.
Legend:
human LDL = assay: LDL assay of antioxidant properties (TBA-reactive material); assay type: biochemical; conditions: 5×10^-5 M, 24 h, 10 μM Cu^2+, versus vehicle-treated control; 50 µM
Experimental: (§1) The antioxidant properties of the compounds according to the invention were studied in in-vitro tests. In these tests the substance was incubated with the substrate to be oxidized (synthetic triglyceride with unsaturated fatty acids, i.e., trilinolenine or human LDL). After the incubation period, the degree of oxidation was determined using the so called thiobarbituric acid (TBA) assay. TBA reacts with malondialdehyde (MDA), which is one of the essential oxidation products. The reaction product was assayed photometrically.
LDL (d=1.019-1.063) was obtained from human plasma by ultracentifugation under addition of EDTA.
100 μg of LDL was incubated with 0. 5 ml of HAM F 10 medium for 24 h at […] with vehicle (namely ethanol, 0. 5% final concentration) or test substance (concentration: 5×10^-5 M) in the presence of 10 μM of Cu^2+.
The total TBA-reactive material was determined in accordance with the trilinolenine assay.
(§2) Three preparations were tested per test compound.
(§3) Tables 3a (trilinolenine assay) and 3b (LDL assay) represent the mean changes in percent as compared to solvent control.
(§4) Table 3: mean change (Δ mean reduction) in percent of the concentration of TBA-reactive material after 3-h (a: trilinolenine assay) and 24-h (b: LDL assay) incubation versus vehicle-treated control preparation.

triglycerides = assay: Lipid-lowering properties in fasting normolipidemic rats (serum triglycerides, GPO-PAP method); assay type: in vivo; conditions: rat, single oral dose 0.2 mmol/kg, read-out: Mean change (Δ mean reduction) of triglyceride concentrations versus vehicle-treated control
Experimental: The lipid-lowering properties of the compounds according to the invention were investigated in a rat model. In this model a single dose (0.2 mmol/kg) of the test substance was administered to fasting normolipidemic rats by the oral route. 240 and 360 minutes after application, blood samples were taken, the concentrations of triglycerides being assessed by a standard method (namely GPO-PAP method, E. Merck-system, Darrdstadt, Germany) (n=5 rats per measurement time).
In Table 2 the mean changes are given in percent as compared to a solvent (cremophor, 30% in aqua dest) control.
Table 2: Mean changes (Δ mean reduction) in percent of triglyceride concentrations 240 and 360 minutes after a single application versus vehicle-treated control.

[1] = Trilinolenine assay of antioxidant properties (TBA-reactive material); assay type: biochemical; conditions: 5×10^-5 M, 3 h at 37° C., versus vehicle-treated control; 50 µM
Experimental: as §1
400 μl of trilinolenine was incubated for 3 h at 37° C. with 2 ml HAM F 10 medium with vehicle (namely, ethanol, 0.5% final concentration) or test substance (concentration: 5×10^-5 M) (oxidation is effected without special catalysts).
The total TBA-reactive material was determined in 1 ml of the incubate by adding 1.5 ml of 0.67% TBA solution to 0.05 N NAOH and 1.5 ml to a 20% trichloroacetic acid solution. The mixture was reacted for 60 min. on a boiling water bath. After cooling, absorption was determined at 532 nm.
as §2, §3, §4

[2] = tested on: Smooth muscle cells from the aorta of balloon-catheterized rats; assay: Antiproliferative effect on smooth muscle cells in vitro; assay type: cell-based; conditions: Rattus norvegicus, 72 h; 5×10^-5 M, 3 days, versus vehicle-treated control; read-out: Mean change (Δ mean reduction) of the number of smooth vascular muscle cells
Experimental: Smooth muscle cells, obtained after isolation from the aorta of balloon-catheterized rats, were cultivated in DMEM under addition of 10% of fetal calf serum and subject to passages.
For the assay 10,000 cells of one passage were inoculated per dish and incubated for 3 days with vehicle (namely DMSO, 0.5% final concentration) or test compound (5×10^-5 M) 4 h after innoculation. After 3 days a cell count was made. Six preparations-Were tested per test compound.
Table 5: Mean change (Δ mean reduction) in percent of the number of smooth vascular muscle cells after incubation with test substance for 3 days as compared to vehicle-treated control preparation.

[3] = tested on: Human endothelial cells of the umbilical vein; assay: Endothelial protection against cytotoxic effects of oxidized LDL; assay type: cell-based; conditions: 2×10^-5 M, 24 h at 37° C., LDL 200 μg/ml; for Mean change (Δ mean reduction) of the concentration of TBA-reactive material after incubation of endothelial cells with LDL: versus control preparation 1 (vehicle + LDL), 20 µM; for viability at 20 µM: Homo sapiens, Endothelial cell, control preparation 2 without LDL = 100%, read-out: Mean number of endothelial cells after incubation with LDL as compared to control preparation 2
Experimental: Human endothelial cells of the umbilical vein were isolated after collagenase vascular treatment and cultured.
For the assay the cells were dispersed in a density of 50,000 per dish and cultivated for 4 days with Ham's F 12/DMEM medium (ratio: 4:1) under addition of 15% fetal calf serum, 5% horse serum and 10 ng/ml ECGF heparin.
After 4 days the cells were washed with serum-free medium and used in the cytotox assay.
For this assay the cells were incubated f or 24 h at 37° C. in 1 ml of Ham's F 10 medium (+ECGF heparin) with LDL (200 μg/ml). During this time period either the vehicle, namely, ethanol, 0.5% final concentration (control preparation 1) or the test substance (2×10^-5 M) was present. In parallel, one preparation was incubated without LDL and without any other substance and with vehicle (0.5% ethanol) to assess the maximum proliferation rate (control preparation 2).
After 24 h the resultant TBA-reactive material was determined in the medium or the number of cells counted.
as §2
Table 4a represents the mean changes in percent versus appropriate control preparation 1.
Table 4a: Mean change (Δ mean reduction) in percent of the concentration of TBA-reactive material after incubation of endothelial cells for 24 h with LDL versus appropriate control preparation 1.
Table 4b: Mean number of cells in percent after 24-h incubation with LDL as compared to appropriate control preparation 2.

[4] = Kinetics of nicotinic acid released from the compounds in fasting normolipidemic rats (GC/MS in serum); assay type: in vivo, rat; conditions: general statement
Experimental: The kinetics of nicotinic acid released from the compounds under investigation was studied in the rat. A single dose (0.2 mmol/kg) of the test substance was administered to fasting normolipidemic rats by gavage. 240 and 360 minutes thereafter, blood samples were taken and the concentration of nicotinic acid in serum was determined using a GC/MS method (n=5 rats per time). Table 1: Concentration of nicotinic acid (mg/1) in pooled serum samples after a single application of drug.

Compound	Mean change (Δ mean reduction) of the concentration of TBA-reactive material, LDL assay (human LDL) [%]	inhibition in vivo at 200 µmol/kg (triglycerides; 4 h, Time 240') [%]	inhibition in vivo at 200 µmol/kg (triglycerides; 6 h, Time 360') [%]	Mean change (Δ mean reduction) of the concentration of TBA-reactive material, trilinolenine assay [1] [%]	inhibition at 50 µM [2] [%]	Mean change (Δ mean reduction) of the concentration of TBA-reactive material after incubation of endothelial cells with LDL [3] [%]	viability at 20 µM [3] [%]	levels of nicotinic acid (in words) [4]
CC(C)(C)c1cc(CCCOCCCc2cccnc2)cc(C(C)(C)C)c1O [3/190, 2,6-Di-tert-butyl-4-[7-(3-pyridyl)-4-oxaheptyl]phenol]	89	56	28	72	91	36	65	
CC(C)(C)c1cc(CCCOCCCCCc2cccnc2)cc(C(C)(C)C)c1O [3/191, 2,6-Di-tert-butyl-4-[9-(3-pyridyl)-4-oxanonyl)phenol]	86	37	32	76	79	33	63	
CC(C)(C)c1cc(COCCCCCCc2cccnc2)cc(C(C)(C)C)c1O [3/161, 2,6-Di-tert-butyl-4-[8-(3-pyridyl)-2-oxaoctyl]phenol]	79	60	67	58	98	64	107	
CC(C)(C)c1cc(COCCCCCCCc2cccnc2)cc(C(C)(C)C)c1O [3/188, 2,6-Di-tert-butyl-4-[9-(3-pyridyl)-2-oxanonyl]phenol]	71	53	40	66	63	54	79	
CC(C)(C)c1cc(COCCCCCc2cccnc2)cc(C(C)(C)C)c1O [3/192, 2,6-Di-tert-butyl-4-[7-(3-pyridyl)-2-oxaheptyl]phenol]	86	44	53	74	95	47	79	
CC(C)(C)c1cc(COCCCCC#Cc2cccnc2)cc(C(C)(C)C)c1O [3/179, 2,6-Di-tert-butyl-4-[8-(3-pyridyl)-2-oxaoct-7-ynyl]phenol]	73	57	70	79	55	43	76	
CC(C)(C)c1cc(COCc2cccnc2)cc(C(C)(C)C)c1O [3/156]								excessively high levels of nicotinic acid
CC(C)(C)c1cc(COCCCC/C=C\c2cccnc2)cc(C(C)(C)C)c1O [3/181, (Z)-2,6-Di-tert-butyl-4-(8-(3-pyridyl)-2-oxaoct-7-enyl]-phenol]	76	57	57	76	81	65	122	
CC(C)(C)c1cc(COCCCCc2cccnc2)cc(C(C)(C)C)c1O [3/187, 2,6-Di-tert-butyl-4-[6-(3-pyridyl)-2-oxahexyl]phenol]	82	65	55	71	93	53	80	
CC(C)(C)c1cc(CCCOCc2cccnc2)cc(C(C)(C)C)c1O [3/124, 2,6-Di-tert-butyl-4-(5-(3-pyridyl)-4-oxapentyl]phenol]	90	73	76	76	71	57	118	
